From ChEMBL document CHEMBL1275409, “Antimicrobial-resistant pathogens in intensive care units in Canada: results of the Canadian National Intensive Care Unit (CAN-ICU) study, 2005-2006” (2008)

How the values were obtained:
Format in all cases: functional
[1] = tested on: Staphylococcus aureus; assay: Antimicrobial activity against methicillin-resistant Staphylococcus aureus isolated from ICU patient respiratory tract assessed as resistant isolates by broth microdilution method
[2] = tested on: Staphylococcus aureus; assay: Antimicrobial activity against methicillin-resistant Staphylococcus aureus isolated from ICU patient wound assessed as resistant isolates by broth microdilution method
[3] = tested on: Staphylococcus aureus; assay: Antimicrobial activity against methicillin-resistant Staphylococcus aureus isolated from ICU patient urine assessed as resistant isolates by broth microdilution method
[4] = tested on: Staphylococcus aureus; assay: Antimicrobial activity against methicillin-resistant Staphylococcus aureus isolated from ICU patient blood assessed as resistant isolates by broth microdilution method
[5] = tested on: Staphylococcus aureus; assay: Antimicrobial activity against methicillin-resistant Staphylococcus aureus assessed as resistant isolates by broth microdilution method
[6] = tested on: Staphylococcus aureus; assay: Antimicrobial activity against methicillin-susceptible Staphylococcus aureus isolated from ICU patient respiratory tract assessed as resistant isolates by broth microdilution method
[7] = tested on: Staphylococcus aureus; assay: Antimicrobial activity against methicillin-susceptible Staphylococcus aureus isolated from ICU patient wound assessed as resistant isolates by broth microdilution method
[8] = tested on: Staphylococcus aureus; assay: Antimicrobial activity against methicillin-susceptible Staphylococcus aureus isolated from ICU patient urine assessed as resistant isolates by broth microdilution method
[9] = tested on: Staphylococcus aureus; assay: Antimicrobial activity against methicillin-susceptible Staphylococcus aureus isolated from ICU patient blood assessed as resistant isolates by broth microdilution method
[10] = tested on: Staphylococcus aureus; assay: Antimicrobial activity against methicillin-susceptible Staphylococcus aureus assessed as resistant isolates by broth microdilution method
[11] = tested on: Enterobacter cloacae; assay: Antimicrobial activity against carbapenem-resistant Enterobacter cloacae isolated from ICU patient respiratory tract assessed as resistant isolates by broth microdilution method
[12] = tested on: Haemophilus influenzae; assay: Antimicrobial activity against Haemophilus influenzae assessed as resistant isolates by broth microdilution method
[13] = tested on: Haemophilus influenzae; assay: Antimicrobial activity against Haemophilus influenzae isolated from ICU patient blood assessed as resistant isolates by broth microdilution method
[14] = tested on: Haemophilus influenzae; assay: Antimicrobial activity against Haemophilus influenzae isolated from ICU patient wound assessed as resistant isolates by broth microdilution method
[15] = tested on: Haemophilus influenzae; assay: Antimicrobial activity against Haemophilus influenzae isolated from ICU patient respiratory tract assessed as resistant isolates by broth microdilution method
[16] = tested on: Enterobacter cloacae; assay: Antimicrobial activity against carbapenem-resistant Enterobacter cloacae isolated from ICU patient wound assessed as resistant isolates by broth microdilution method
[17] = tested on: Enterobacter cloacae; assay: Antimicrobial activity against carbapenem-resistant Enterobacter cloacae isolated from ICU patient urine assessed as resistant isolates by broth microdilution method
[18] = tested on: Enterobacter cloacae; assay: Antimicrobial activity against carbapenem-resistant Enterobacter cloacae isolated from ICU patient blood assessed as resistant isolates by broth microdilution method
[19] = tested on: Enterobacter cloacae; assay: Antimicrobial activity against carbapenem-resistant Enterobacter cloacae assessed as resistant isolates by broth microdilution method
[20] = tested on: Pseudomonas aeruginosa; assay: Antimicrobial activity against carbapenem-resistant Pseudomonas aeruginosa isolated from ICU patient respiratory tract assessed as resistant isolates by broth microdilution method
[21] = tested on: Pseudomonas aeruginosa; assay: Antimicrobial activity against carbapenem-resistant Pseudomonas aeruginosa isolated from ICU patient wound assessed as resistant isolates by broth microdilution method
[22] = tested on: Pseudomonas aeruginosa; assay: Antimicrobial activity against carbapenem-resistant Pseudomonas aeruginosa isolated from ICU patient urine assessed as resistant isolates by broth microdilution method
[23] = tested on: Pseudomonas aeruginosa; assay: Antimicrobial activity against carbapenem-resistant Pseudomonas aeruginosa isolated from ICU patient blood assessed as resistant isolates by broth microdilution method
[24] = tested on: Pseudomonas aeruginosa; assay: Antimicrobial activity against carbapenem-resistant Pseudomonas aeruginosa assessed as resistant isolates by broth microdilution method
[25] = tested on: Klebsiella pneumoniae; assay: Antimicrobial activity against ESBL producing Klebsiella pneumoniae isolated from ICU patient respiratory tract assessed as resistant isolates by broth microdilution method
[26] = tested on: Klebsiella pneumoniae; assay: Antimicrobial activity against ESBL producing Klebsiella pneumoniae isolated from ICU patient wound assessed as resistant isolates by broth microdilution method
[27] = tested on: Klebsiella pneumoniae; assay: Antimicrobial activity against ESBL producing Klebsiella pneumoniae isolated from ICU patient urine assessed as resistant isolates by broth microdilution method
[28] = tested on: Klebsiella pneumoniae; assay: Antimicrobial activity against ESBL producing Klebsiella pneumoniae isolated from ICU patient blood assessed as resistant isolates by broth microdilution method
[29] = tested on: Klebsiella pneumoniae; assay: Antimicrobial activity against ESBL producing Klebsiella pneumoniae assessed as resistant isolates by broth microdilution method
[30] = tested on: Escherichia coli; assay: Antimicrobial activity against CTX-M ESBL producing Escherichia coli isolated from ICU patient respiratory tract assessed as resistant isolates by broth microdilution method
[31] = tested on: Escherichia coli; assay: Antimicrobial activity against CTX-M ESBL producing Escherichia coli isolated from ICU patient wound assessed as resistant isolates by broth microdilution method
[32] = tested on: Escherichia coli; assay: Antimicrobial activity against CTX-M ESBL producing Escherichia coli isolated from ICU patient urine assessed as resistant isolates by broth microdilution method
[33] = tested on: Escherichia coli; assay: Antimicrobial activity against CTX-M ESBL producing Escherichia coli isolated from ICU patient blood assessed as resistant isolates by broth microdilution method
[34] = tested on: Escherichia coli; assay: Antimicrobial activity against CTX-M ESBL producing Escherichia coli assessed as resistant isolates by broth microdilution method
[35] = tested on: Streptococcus pneumoniae; assay: Antimicrobial activity against penicillin-resistant Streptococcus pneumoniae isolated from ICU patient respiratory tract assessed as resistant isolates by broth microdilution method
[36] = tested on: Streptococcus pneumoniae; assay: Antimicrobial activity against penicillin-resistant Streptococcus pneumoniae isolated from ICU patient wound assessed as resistant isolates by broth microdilution method
[37] = tested on: Streptococcus pneumoniae; assay: Antimicrobial activity against penicillin-resistant Streptococcus pneumoniae isolated from ICU patient blood assessed as resistant isolates by broth microdilution method
[38] = tested on: Streptococcus pneumoniae; assay: Antimicrobial activity against penicillin-resistant Streptococcus pneumoniae assessed as resistant isolates by broth microdilution method
[39] = tested on: Staphylococcus epidermidis; assay: Antimicrobial activity against methicillin-resistant Staphylococcus epidermidis isolated from ICU patient wound assessed as resistant isolates by broth microdilution method
[40] = tested on: Staphylococcus epidermidis; assay: Antimicrobial activity against methicillin-resistant Staphylococcus epidermidis isolated from ICU patient urine assessed as resistant isolates by broth microdilution method
[41] = tested on: Staphylococcus epidermidis; assay: Antimicrobial activity against methicillin-resistant Staphylococcus epidermidis isolated from ICU patient blood assessed as resistant isolates by broth microdilution method
[42] = tested on: Staphylococcus epidermidis; assay: Antimicrobial activity against methicillin-resistant Staphylococcus epidermidis assessed as resistant isolates by broth microdilution method
[43] = tested on: Staphylococcus epidermidis; assay: Antimicrobial activity against methicillin-susceptible Staphylococcus epidermidis isolated from ICU patient respiratory tract assessed as resistant isolates by broth microdilution method
[44] = tested on: Staphylococcus epidermidis; assay: Antimicrobial activity against methicillin-susceptible Staphylococcus epidermidis isolated from ICU patient wound assessed as resistant isolates by broth microdilution method
[45] = tested on: Staphylococcus epidermidis; assay: Antimicrobial activity against methicillin-susceptible Staphylococcus epidermidis isolated from ICU patient urine assessed as resistant isolates by broth microdilution method
[46] = tested on: Staphylococcus epidermidis; assay: Antimicrobial activity against methicillin-susceptible Staphylococcus epidermidis isolated from ICU patient blood assessed as resistant isolates by broth microdilution method
[47] = tested on: Staphylococcus epidermidis; assay: Antimicrobial activity against methicillin-susceptible Staphylococcus epidermidis assessed as resistant isolates by broth microdilution method

With `C[C@@H](O)[C@H]1C(=O)N2C(C(=O)O)=C(S[C@@H]3CN[C@H](C(=O)N(C)C)C3)[C@H](C)[C@H]12` [MEROPENEM] the Activity [1] was 100%, the Activity [2] was 100% and the Activity [3] was 100%. The Activity [4] was 100%, the Activity [5] was 100% and the Activity [6] was 0%. The Activity [7] was 0%, the Activity [8] was 0% and the Activity [9] was 0%. For the same molecule, the Activity [10] was 0%, the Activity [11] was 0% and the Activity [12] was 0%. It also gave an Activity [13] of 0%, an Activity [14] of 0% and an Activity [15] of 0%. The Activity [16] was 0%, the Activity [17] was 0% and the Activity [18] was 0%. The Activity [19] was 0%, the Activity [20] was 0% and the Activity [21] was 0%. The Activity [22] was 0%, the Activity [23] was 0% and the Activity [24] was 0%. For the same molecule, the Activity [25] was 12.5%, the Activity [26] was 18.9% and the Activity [27] was 17.8%. The Activity [28] was 9.1%, the Activity [29] was 13.6% and the Activity [30] was 0%. It also gave an Activity [31] of 0%, an Activity [32] of 0% and an Activity [33] of 0%. For the same molecule, the Activity [34] was 0%, the Activity [35] was 0.5% and the Activity [36] was 0%. It also gave an Activity [37] of 0%, an Activity [38] of 0.4% and an Activity [39] of 100%. The Activity [40] was 100%, the Activity [41] was 100% and the Activity [42] was 100%. For the same molecule, the Activity [43] was 0%, the Activity [44] was 29.2% and the Activity [45] was 0%. For the same molecule, the Activity [46] was 1.8% and the Activity [47] was 9.3%.
